The source made the active and inactive calls. The calls are words filed in the database; no cut-off is given here.
Tests used:
Escherichia coli [1] = test: Induction of membrane permeabilization in Escherichia coli BW25113 at 1 uM incubated for 30 mins by ONPG/beta-galactosidase assay; assay type: functional, organism-based
Escherichia coli [2] = test: Bactericidal activity against Escherichia coli BW25113 assessed as prevention visible bacterial growth incubated for 18 hrs; assay type: functional; conditions: BW25113, 18 h
Escherichia coli [3] = test: Induction of membrane permeabilization in Escherichia coli BW25113 at 1 to 2 uM incubated for 30 mins by ONPG/beta-galactosidase assay; assay type: functional, organism-based
Escherichia coli [4] = test: Induction of membrane permeabilization in Escherichia coli BW25113 at 1 to 16 uM incubated for 30 mins by ONPG/beta-galactosidase assay; assay type: functional, organism-based
Staphylococcus aureus [5] = test: Bactericidal activity against Staphylococcus aureus ATCC 25923 assessed as prevention visible bacterial growth incubated for 18 hrs; assay type: functional; conditions: ATCC 25923, 18 h
Escherichia coli [6] = test: Antibacterial activity against Escherichia coli clinical isolates assessed as prevention visible bacterial growth incubated for 18 hrs; assay type: functional
Escherichia coli [7] = test: Antibacterial activity against Escherichia coli ATCC 25922 assessed as prevention visible bacterial growth incubated for 18 hrs; assay type: functional; conditions: ATCC 25922, 18 h
Pseudomonas aeruginosa [8] = test: Bactericidal activity against Pseudomonas aeruginosa ATCC 27853 assessed as prevention visible bacterial growth incubated for 18 hrs; assay type: functional; conditions: ATCC 27853, 18 h
Escherichia coli [9] = test: Bactericidal activity against Escherichia coli BW25113 expressing delta sbmA mutation assessed as prevention visible bacterial growth incubated for 18 hrs; assay type: functional; conditions: BW25113, 18 h
Escherichia coli [10] = test: Ratio of MIC for antibacterial activity against Escherichia coli BW25113 expressing delta sbmA mutation to MIC for antibacterial activity against wild type Escherichia coli BW25113; assay type: functional
Staphylococcus aureus [11] = test: Antibacterial activity against Staphylococcus aureus ATCC 25923 assessed as prevention visible bacterial growth incubated for 18 hrs; assay type: functional; conditions: ATCC 25923, 18 h
Escherichia coli [12] = test: Induction of membrane permeabilization in Escherichia coli BW25113 at 1 to 16 uM incubated for 30 mins by propidium iodide uptake based flow cytometry; assay type: functional, organism-based
Escherichia coli [13] = test: Inhibition of in-vitro transcription/translation in Escherichia coli lysates at 1 uM incubated for 1 hr by luciferase reporter gene assay relative to control; assay type: functional
Pseudomonas aeruginosa [14] = test: Antibacterial activity against Pseudomonas aeruginosa ATCC 27853 assessed as prevention visible bacterial growth incubated for 18 hrs; assay type: functional; conditions: ATCC 27853, 18 h
Escherichia coli [15] = test: Antibacterial activity against Escherichia coli BW25113 expressing delta sbmA mutation assessed as prevention visible bacterial growth incubated for 18 hrs; assay type: functional; conditions: BW25113, 18 h
Escherichia coli [16] = test: Ratio of MBC for antibacterial activity against Escherichia coli BW25113 expressing delta sbmA mutation to MBC for antibacterial activity against wild type Escherichia coli BW25113; assay type: functional
Acinetobacter baumannii [17] = test: Antibacterial activity against Acinetobacter baumannii ATCC 19606 assessed as prevention visible bacterial growth incubated for 18 hrs; assay type: functional; conditions: ATCC 19606 = CIP 70.34 = JCM 6841, 18 h
Klebsiella pneumoniae [18] = test: Bactericidal activity against Klebsiella pneumoniae 700603 assessed as prevention visible bacterial growth incubated for 18 hrs; assay type: functional; conditions: Klebsiella pneumoniae, 700603, 18 h
Escherichia coli [19] = test: Bactericidal activity against Escherichia coli ATCC 25922 assessed as prevention visible bacterial growth incubated for 18 hrs; assay type: functional; conditions: ATCC 25922, 18 h
Klebsiella pneumoniae [20] = test: Antibacterial activity against Klebsiella pneumoniae 700603 assessed as prevention visible bacterial growth incubated for 18 hrs; assay type: functional; conditions: Klebsiella pneumoniae, 700603, 18 h
Acinetobacter baumannii [21] = test: Bactericidal activity against Acinetobacter baumannii ATCC 19606 assessed as prevention visible bacterial growth incubated for 18 hrs; assay type: functional; conditions: ATCC 19606 = CIP 70.34 = JCM 6841, 18 h
[22] = Cytotoxicity in human MEC1 cells assessed as reduction in cell viability incubated for 20 hrs by MTT assay; assay type: cell-based
Escherichia coli [23] = test: Antibacterial activity against Escherichia coli ATCC 25922 assessed as prevention visible bacterial growth incubated for 18 hrs in presence of 10% (v/v) human serum in full MH medium; assay type: functional; conditions: ATCC 25922, 18 h
Escherichia coli [24] = test: Antibacterial activity against Escherichia coli BW25113 assessed as prevention visible bacterial growth incubated for 18 hrs; assay type: functional; conditions: BW25113, 18 h
Escherichia coli [25] = test: Induction of membrane permeabilization in Escherichia coli BW25113 at 16 uM incubated for 30 mins by ONPG/beta-galactosidase assay relative to 1 uM colistin; assay type: functional
Escherichia coli [26] = test: Induction of membrane permeabilization in Escherichia coli BW25113 at 8 to 16 uM incubated for 30 mins by propidium iodide uptake based flow cytometry; assay type: functional, organism-based
Escherichia coli [27] = test: Induction of membrane permeabilization in Escherichia coli BW25113 at 8 to 16 uM incubated for 30 mins by ONPG/beta-galactosidase assay; assay type: functional, organism-based
Escherichia coli [28] = test: Induction of membrane permeabilization in Escherichia coli BW25113 at 4 uM incubated for 30 mins by propidium iodide uptake based flow cytometry; assay type: functional, organism-based
Escherichia coli [29] = test: Antibacterial activity against Escherichia coli isolate EURL-VTEC C07 assessed as prevention visible bacterial growth incubated for 18 hrs; assay type: functional; conditions: isolate EURL-VTEC C07, 18 h
Escherichia coli [30] = test: Induction of membrane permeabilization in Escherichia coli BW25113 at 4 uM incubated for 30 mins by ONPG/beta-galactosidase assay; assay type: functional, organism-based

| Substance | MBC (Escherichia coli [2]) [µM] | Activity (Escherichia coli [3]) | MBC (Staphylococcus aureus [5]) [µM] | MIC99 (Escherichia coli [6]) [µM] | MIC99 (Escherichia coli [7]) [µM] | MBC (Pseudomonas aeruginosa [8]) [µM] | MBC (Escherichia coli [9]) [µM] | Ratio (Escherichia coli [10]) | MIC99 (Staphylococcus aureus [11]) [µM] | inhibition (Escherichia coli [13]) | MIC99 (Pseudomonas aeruginosa [14]) [µM] | MIC99 (Escherichia coli [15]) [µM] | MIC99 (Acinetobacter baumannii [17]) [µM] | MBC (Klebsiella pneumoniae [18]) [µM] | MBC (Escherichia coli [19]) [µM] | MIC99 (Klebsiella pneumoniae [20]) [µM] | MBC (Acinetobacter baumannii [21]) [µM] | CC50 at 20 h [22] [µM] | MIC (Escherichia coli [23]) [µM] | MIC99 (Escherichia coli [24]) [µM] | further results |
| --- | --- | --- | --- | --- | --- | --- | --- | --- | --- | --- | --- | --- | --- | --- | --- | --- | --- | --- | --- | --- | --- |
| COLISTIN | – | – | – | – | – | – | – | – | – | – | – | – | – | – | – | – | – | – | – | – | Activity (Escherichia coli [1]): Active |
| H-RRIRPRPPRLPRPRWR-OH | 8 | inactive | > 64 | > 1 | 1 | 32 | 16 | 2 - 4 | > 64 | Active | > 64 | 4 | 12 | 16 | 2 | 2 | 24 | > 64 | 1.5 | 1 to 4 | Activity (Escherichia coli [4]): inactive; Activity (Escherichia coli [12]): inactive; Ratio (Escherichia coli [16]): 2 - 4 |
| H-WRIRPRPPRLPRPRPR-OH | 1 | inactive | > 64 | > 1 | 1 | > 64 | 32 | – | > 64 | Active | > 64 | 12 | 32 | 64 | 2 | 16 | 64 | > 64 | 1 | 1 to 2 | Activity (Escherichia coli [4]): inactive; Activity (Escherichia coli [12]): inactive |
| H-WRIRRRPPRLPRPRWR-OH | 8 | inactive | > 64 | > 1 | 1 | 64 | 4 | 2 - 4 | 32 | Active | 64 | 3 | 32 | 32 | 2 | 4 | 32 | > 64 | 6 | 1 | Activity (Escherichia coli [25]): 30%; Activity (Escherichia coli [26]): Active; Ratio (Escherichia coli [16]): 2 - 4; Activity (Escherichia coli [27]): Active |
| H-WRIRRRWPRLPRPRWR-OH | 4 | inactive | > 64 | > 1 | 1 | > 64 | 4 | 2 - 4 | 12 | Active | 32 | 4 | 4 | 8 | 2 | 2 | 8 | > 64 | 3 | 2 | Activity (Escherichia coli [25]): 30%; Activity (Escherichia coli [26]): Active; Activity (Escherichia coli [28]): Active; Ratio (Escherichia coli [16]): 2 - 4; Activity (Escherichia coli [27]): Active; MIC99 (Escherichia coli [29]): 2 µM; Activity (Escherichia coli [30]): Active |
